The record followed here is PMC8290497, “Taxifolin, an Inhibitor of Sortase A, Interferes With the Adhesion of Methicillin-Resistant Staphylococcal aureus” (Frontiers in Microbiology, 2021).

One data set concerns HepG2 cells. In words: CCK-8 cytotoxicity assay, HepG2. Type of data set: cell-based. On the procedure:
Cytotoxicity was determined using a cell counting kit-8 assay (CCK-8, US EVERBRIGHT, Suzhou, China), as described previously ([Xiao et al., 2018]). HEK293 or HepG2 cells were seeded in 96-well plates (Corning, United States) at a density of 5 × 10^4 cells/well, then incubated at 37°C in an atmosphere containing 5% CO2 for 24 h. The culture medium was then exchanged with fresh medium containing different concentrations of Tax (0–200 μM) or vehicle and incubated for an additional 24 h. CCK-8 solution (10 μL) was carefully added then incubated for 4 h in an incubator at 37°C. The OD value at 450 nm was measured to calculate cell viability.
(§1) FIGURE 2 Growth curve and cytotoxicity. (A) Growth curves of S. aureus USA300 and the ΔsrtA group with different concentrations of Tax. (B) Growth rate of S. aureus USA300 and S. aureus treated with Tax (25 μM). (C) Percent cell viability of HEK293 (purple) and HepG2 (blue) cells were measured using a CCK-8 assay after incubation with Tax for 24 h.

The next data set has as its system BALB/c mice. The note with it: mouse, in vivo, ip, 200 mg/kg.
Data set [1] has as its system SrtA expression in S. aureus. In words: Western blot analysis of SrtA expression. Type of data set: cell-based, Staphylococcus aureus. The note with it: 25–200 μM Tax, compared with the untreated group. On the procedure:
To evaluate the effect of Tax on SrtA expression, Tax (25–200 μM) was added to different bacterial cultures and incubated overnight at 37°C. Equal quantities of total protein from the bacterial lysates were separated by 12% SDS-PAGE then transferred to a polyvinylidene fluoride (PVDF) membrane using a transblot semidry system. Non-specific binding to the PVDF membrane was prevented by incubating in 5% bovine serum albumin (BSA) overnight at 4°C. The membranes were washed three times with PBST, agitating each time for 5 min, then incubated with rabbit polyclonal antibody (created in the laboratory) against SrtA. Following a further washing in PBST three times, the membranes were incubated with HRP-labeled goat anti-rabbit IgG (Bioworld, China) diluted 1:10,000 in antibody diluent (PBST + 1% BSA) at 37°C for 1 h. ΔsrtA or S. aureus USA300 without Tax was considered the control group. The cytoplasmic protein ClpP was analyzed as an internal control. Blots were visualized using an enhanced chemiluminescence (ECL) detection system (GE Healthcare, United Kingdom), while bands were quantified using ImageQuant TL software (GE Healthcare).
FIGURE 4 Expression of SrtA in the presence of Tax and the interaction of different concentrations of Tax with SrtA. […] Error bars represent means ± SD of three replicates. ***P < 0.001 calculated with a two-tailed Student’s t-test.

Data set [2] concerns S. aureus USA300. In words: Broth microdilution susceptibility assay (MIC). It counts as cell-based. The note with it: Staphylococcus aureus, S. aureus USA 300. On the procedure: (§2) A broth microdilution assay was performed to determine the minimum inhibitory concentration (MIC) of Tax for S. aureus USA300, as described elsewhere ([Sader et al., 2013]; [Delgado-Valverde et al., 2017]). A growth curve was further evaluated by adding various concentrations of Tax (0–200 μM) to a bacterial culture, then incubating until an OD600 of 0.3 had been reached. S. aureus USA300 and ΔsrtA were used as controls. The OD600 value was recorded for each sample at 1 h intervals for a total of 24 h. The growth rate between S. aureus treated with Tax and S. aureus USA300 was also calculated at each time point.

Data set [3] has as its system S. aureus mature biofilms. Briefly: Mature biofilm assay (crystal violet). The note with it: 25–200 μM Tax, 24 h. It counts as cell-based, Staphylococcus aureus. The method, then: S. aureus biofilms were formed for 24 h at 37°C on the surfaces of the wells of a 96-well plate. Following biofilm formation, different Tax concentrations (25–200 μM) were added to selected wells and the plates were incubated for 24 h at 37°C. The effects of Tax on the mature biofilms were estimated using the crystal violet stain and recorded by a microplate reader.
FIGURE 3 Effect of SrtA inhibitor on virulence-related phenotypes in S. aureus Newman strain. (A) Impact of Tax on the ability of S. aureus to adhere to fibrinogen. (B) Biofilm formation of S. aureus in the presence of different concentrations of Tax. (C) Mature biofilms of S. aureus in the presence of different concentrations of Tax. The ΔsrtA group represented the positive control. (D) Tax affects internalization of S. aureus into A549 cells. A549 cells were infected with S. aureus pretreated with different concentrations of Tax then lysed 2 h post-infection. The number of viable S. aureus in the cells was quantified by serial dilution on TSA agar plates. (E) Effects of Tax on S. aureus protein A (SpA) using FITC-labeled rabbit IgG. Error bars represent means ± SD of three replicates. *P < 0.05, **P < 0.01, ***P < 0.001 calculated with a two-tailed Student’s t-test.

The test system of data set [4] is S. aureus USA300. In words: Growth curve and growth rate. It counts as cell-based, Staphylococcus aureus. The method, then: as §2, §1

In brackets after ≈: the same amount, converted by molar mass.

Protocol for BALB/c mice: An injection of PBS represented the control group. Symptoms of poisoning or abnormal behavior were monitored, and survival of the mice in each group was recorded after 72 h.

For the compound `O=C1c2c(O)cc(O)cc2OC(c2ccc(O)c(O)c2)C1O` (centres unmarked) [Tax, taxifolin], in the data set on HepG2 cells (200 μM), the “toxicity toward mammalian cells (HepG2)” value is listed as “did not display toxicity”. In the data set on HepG2 cells (at 24.53 ± 0.42 μM, 24 h), the “cytotoxicity toward HepG2 cells” value is “no significant cytotoxicity”. In addition, in the data set with BALB/c mice, the “acute toxicity, signs observed” value is given as “no signs of malaise, or tardy or inanimate behavior”. In addition, the “effect on SrtA expression” value in data set [1] is on record as “no apparent effect”. This compound also returned an MIC against S. aureus USA300 [2] of 512 µg/mL (≈ 1680 µM). For the same compound, the “effect on mature biofilms” value in data set [3] is “had no effect”. Besides, the “toxicity toward S. aureus” value in the data set with S. aureus USA300 [4] (200 μM) is given as “did not display toxicity”. Moreover, the “effect on the growth of S. aureus” value in the data set on S. aureus USA300 [4] (at a concentration of IC50 (25 μM), P > 0.05) is reported as “no significant effect”.
